The source of these data is US9447100B2, “Substituted pyrazolo[1,5-A] pyrimidines as calcium receptor modulating agents” (Takeda Pharmaceutical Company Limited, priority 2002, dated 2016).

Where a name gives a salt, the structure may show the parent alone.

The melting point is the temperature of the solid-liquid transition.

`CCC(CC)(Cc1ccc(Cl)cc1)NC(=O)c1cnn2c1NC(c1ccccc1)CC2(C)C` (centres unmarked) [Example 699, N-(1-(4-chlorobenzyl)-1-ethylpropyl)-7,7-dimethyl-5-phenyl-4,5,6,7-tetrahydropyrazolo[1,5-a]pyrimidine-3-carboxamide] gave a melting point of 156 to 157 °C.

In turn, `CCCC(CC)(CC)NC(=O)c1c(C)nn2c1NC(c1ccccc1)CC2(C)C` (centres unmarked) (as salt: HCl) [Example 838, N-(1,1-diethylbutyl)-2,7,7-trimethyl-5-phenyl-4,5,6,7-tetrahydropyrazolo[1,5-a]pyrimidine-3-carboxamide] came in with a melting point of 176 to 177 °C.

Consider `CCC(CC)(NC(=O)c1cnn2c1NC(c1ccco1)CC2(C)C)c1ccc(C(F)(F)F)cc1` (centres unmarked) [Example 693, N-(1-ethyl-1-(4-(trifluoro-methyl)phenyl)propyl)-5-(2-furyl)-7,7-dimethyl-4,5,6,7-tetrahydropyrazolo[1,5-a]pyrimidine-3-carboxamide], for which the melting point was in the range of 212 to 214 °C.

For the compound `Cc1ccc(C(C)(C)NC(=O)c2cnn3c2NC(c2ccccc2)CC3(C)C)cc1` (centres unmarked) (as salt: HCl) [Example 793, 7,7-dimethyl-N-(1-methyl-1-(4-methylphenyl)ethyl)-5-phenyl-4,5,6,7-tetrahydropyrazolo[1,5-a]pyrimidine-3-carboxamide], the melting point lay in the range of 150 to 151 °C.

Take `CCCCC(CCCC)(NC(=O)c1cnn2c1NC(c1ccccc1)CC2(C)C)c1ccc(C(F)(F)F)cc1` (centres unmarked) [Example 411, N-(1-butyl-1-(4-(trifluoromethyl)phenyl)pentyl)-7,7-dimethyl-5-phenyl-4,5,6,7-tetrahydropyrazolo[1,5-a]pyrimidine-3-carboxamide]: the melting point lay within 113 to 114 °C.

On to `CCC(CC)(NC(=O)c1cnn2c1NC(c1ccccc1)CC2(C)C)c1cccc(C(F)(F)F)c1` (centres unmarked) [Example 434, N-(1-ethyl-1-(3-(trifluoromethyl)phenyl)propyl)-7,7-dimethyl-5-phenyl-4,5,6,7-tetrahydropyrazolo[1,5-a]pyrimidine-3-carboxamide], for which the melting point was 166 to 167 °C.

With `CCC(CC)(NC(=O)c1c(C)nn2c1NC(c1ccccc1)CC2(C)C)c1ccc(C(=O)O)cc1` (centres unmarked) [Example 979, 4-(1-ethyl-1-(((2,7,7-trimethyl-5-phenyl-4,5,6,7-tetrahydropyrazolo[1,5-a]pyrimidin-3-yl)carbonyl)amino)propyl) benzoic acid], the melting point was in the range of 244 to 246 °C.

Compound `CCC1(NC(=O)c2cnn3c2NC(c2ccccc2)CC3(C)C)CCSCC1` (centres unmarked) [Example 575, N-(4-ethyltetrahydro-2H-thiopyran-4-yl)-7,7-dimethyl-5-phenyl-4,5,6,7-tetrahydropyrazolo[1,5-a]pyrimidine-3-carboxamide] had a melting point of 97 to 98 °C.

`CCC(CC)(NC(=O)c1cnn2c1NC(c1cccc(OC)n1)CC2(C)C)c1ccc(F)cc1` (centres unmarked) [Example 603, N-(1-ethyl-1-(4-fluorophenyl)propyl)-5-(6-methoxy-2-pyridinyl)-7,7-dimethyl-4,5,6,7-tetrahydropyrazolo[1,5-a]pyrimidine-3-carboxamide] gave a melting point of 156 to 157 °C.

`CCC(CC)(CCC(F)(F)F)NC(=O)c1cnn2c1NC(c1ccccc1)CC2(C)C` (centres unmarked) [Example 698, N-(1,1-diethyl-4,4,4-trifluorobutyl)-7,7-dimethyl-5-phenyl-4,5,6,7-tetrahydropyrazolo[1,5-a]pyrimidine-3-carboxamide] registered a melting point of 84 to 85 °C.

`CCC(CC)(NC(=O)c1cnn2c1NC(c1ccccc1)CC2(C)C)c1ccc(OC(C)=O)cc1` (centres unmarked) [Example 728, 4-(1-(((7,7-dimethyl-5-phenyl-4,5,6,7-tetrahydropyrazolo[1,5-a]pyrimidin-3-yl)carbonyl)amino)-1-ethylpropyl)phenyl acetate] came in with a melting point of 171 to 172 °C.

For `CCC(CC)(NC(=O)c1c(C)nn2c1NC(c1ccccc1OC)CC2(C)C)c1ccc(C)cc1` (centres unmarked) (as salt: HCl) [Example 965, N-(1-ethyl-1-(4-methylphenyl)propyl)-5-(2-methoxyphenyl)-2,7,7-trimethyl-4,5,6,7-tetrahydropyrazolo[1,5-a]pyrimidine-3-carboxamide], the melting point is 162 to 163 °C.

Take `CCC(CC)(NC(=O)c1cnn2c1NC(c1ccccn1)CC2(C)C)c1ccc(F)cc1` (centres unmarked) [Example 601, N-(1-ethyl-1-(4-fluorophenyl)propyl)-7,7-dimethyl-5-(2-pyridinyl)-4,5,6,7-tetrahydropyrazolo[1,5-a]pyrimidine-3-carboxamide]: the melting point is 167 to 169 °C.

On to `CC(C)C(NC(=O)c1cnn2c1NC(c1ccccc1)CC2(C)C)C(C)C` (centres unmarked) [Example 621, N-(1-isopropyl-2-methylpropyl)-7,7-dimethyl-5-phenyl-4,5,6,7-tetrahydropyrazolo[1,5-a]pyrimidine-3-carboxamide], for which the melting point fell in the range of 168 to 169 °C.

`CCC(CC)(NC(=O)c1c(C)nn2c1N[C@@H](c1ccccc1)CC2(C)C)c1ccc(N(C)C)cc1` (as salt: HCl) [Example 1071, (5R)-N-(1-(4-(dimethylamino)phenyl)-1-ethylpropyl)-2,7,7-trimethyl-5-phenyl-4,5,6,7-tetrahydropyrazolo[1,5-a]pyrimidine-3-carboxamide] showed a melting point of 141 to 142 °C.

The compound `CCC(CC)(NC(=O)c1c(C)nn2c1NC(c1ccccc1)CC2(C)C)c1ccc(F)cc1` (centres unmarked) [Example 761, N-(1-ethyl-1-(4-fluorophenyl)propyl)-2,7,7-trimethyl-5-phenyl-4,5,6,7-tetrahydropyrazolo[1,5-a]pyrimidine-3-carboxamide] returned a melting point of 182 to 183 °C.

As for `Cc1ccc(-n2cc3c(n2)CCN(C(=O)c2cnn4c2NC(c2ccccc2)CC4C(F)(F)F)C3)cc1` (centres unmarked) [Example 276, 2-(4-methylphenyl)-5-((5-phenyl-7-(trifluoromethyl)-4,5,6,7-tetrahydropyrazolo[1,5-a]pyrimidin-3-yl)carbonyl)-4,5,6,7-tetrahydro-2H-pyrazolo[4,3-c]pyridine], the melting point fell in the range of 167 to 168 °C.

In the case of `CCOc1ccc(C(CC)(CC)NC(=O)c2cnn3c2NC(c2ccccc2)CC3(C)C)cc1` (centres unmarked) [Example 722, N-(1-(4-ethoxyphenyl)-1-ethylpropyl)-7,7-dimethyl-5-phenyl-4,5,6,7-tetrahydropyrazolo[1,5-a]pyrimidine-3-carboxamide], the melting point lay within 141 to 142 °C.

`CCCc1ccc(C(CC)(CC)NC(=O)c2cnn3c2NC(c2ccccc2)CC3(C)C)cc1` (centres unmarked) [Example 706, N-(1-ethyl-1-(4-propylphenyl)propyl)-7,7-dimethyl-5-phenyl-4,5,6,7-tetrahydropyrazolo[1,5-a]pyrimidine-3-carboxamide]: the melting point is 177 to 178 °C.

Consider `CCC(CC)(NC(=O)c1cnn2c1NC(c1ccccc1)CC2(C)C)c1ccc(CCC(=O)OC(C)C)cc1` (centres unmarked) (as salt: HCl) [Example 816, isopropyl 3-(4-(1-(((7,7-dimethyl-5-phenyl-4,5,6,7-tetrahydropyrazolo[1,5-a]pyrimidin-3-yl)carbonyl)amino)-1-ethyl-propyl)phenyl)propanoate], for which the melting point was 150 to 151 °C.

As to `CCC(CC)(NC(=O)c1c(C)nn2c1NC(c1ccccc1)CC2(C)C)c1ccc(CO)cc1` (centres unmarked) [Example 955, N-(1-ethyl-1-(4-(hydroxy-methyl)phenyl)propyl)-2,7,7-trimethyl-5-phenyl-4,5,6,7-tetrahydropyrazolo[1,5-a]pyrimidine-3-carboxamide], the melting point was 146 to 147 °C.

`CCC(C#N)NC(=O)c1cnn2c1N[C@H](c1ccccc1)C[C@@H]2C(F)(F)F` (stereo in doubt) [Example 283, N-(1-cyanopropyl)-5-phenyl-7-(trifluoromethyl)-4,5,6,7-tetrahydropyrazolo[1,5-a]pyrimidine-3-carboxamide] showed a melting point of 180 to 181 °C.

As for `CCCC(=O)Oc1ccc(C(CC)(CC)NC(=O)c2cnn3c2NC(c2ccccc2)CC3(C)C)cc1` (centres unmarked) [Example 760, 4-(1-(((7,7-dimethyl-5-phenyl-4,5,6,7-tetrahydropyrazolo[1,5-a]pyrimidin-3-yl)carbonyl)amino)-1-ethylpropyl)phenyl butyrate], the melting point lay in the range of 148 to 149 °C.

Regarding `CCC(CC)(NC(=O)c1cnn2c1NC(c1ccccc1)CC2(C)C)c1cccc(F)c1` (centres unmarked) [Example 615, N-(1-ethyl-1-(3-fluorophenyl)propyl)-7,7-dimethyl-5-phenyl-4,5,6,7-tetrahydropyrazolo[1,5-a]pyrimidine-3-carboxamide], the melting point fell in the range of 180 to 181 °C.

In turn, `CC1(C)CC(c2ccccc2)Nc2c(C(=O)NC3(CO)CCCCC3)cnn21` (centres unmarked) [Example 644, N-(1-(hydroxymethyl)cyclo-hexyl)-7,7-dimethyl-5-phenyl-4,5,6,7-tetrahydropyrazolo[1,5-a]pyrimidine-3-carboxamide] registered a melting point of 175 to 176 °C.

In turn, `CCC(CC)(CCOC)NC(=O)c1cnn2c1NC(c1ccccc1)CC2(C)C` (centres unmarked) [Example 664, N-(1,1-diethyl-3-methoxypropyl)-7,7-dimethyl-5-phenyl-4,5,6,7-tetrahydropyrazolo[1,5-a]pyrimidine-3-carboxamide] had a melting point of 129 to 130 °C.

Regarding `CCC(CC)(NC(=O)c1cnn2c1N[C@@H](c1ccccc1)CC2(C)C)c1ccc(SC)cc1` [Example 1067, (5R)-N-(1-ethyl-1-(4-(methylthio)phenyl)propyl)-7,7-dimethyl-5-phenyl-4,5,6,7-tetrahydropyrazolo[1,5-a]pyrimidine-3-carboxamide], the melting point was 151 to 152 °C.

As to `CCOC(=O)CCCCOc1ccc(C(CC)(CC)NC(=O)c2cnn3c2NC(c2ccccc2)CC3(C)C)cc1` (centres unmarked) [Example 817, ethyl 5-(4-(1-(((7,7-dimethyl-5-phenyl-4,5,6,7-tetrahydropyrazolo[1,5-a]pyrimidin-3-yl)carbonyl)amino)-1-ethyl-propyl)phenoxy)pentanoate], the melting point is 120 to 121 °C.

The compound `COc1ccccc1C1CC(C)(C)n2ncc(C(=O)NC34CC5CC(CC(C5)C3)C4)c2N1` (centres unmarked) [Example 581, N-1-adamantyl-5-(2-methoxyphenyl)-7,7-dimethyl-4,5,6,7-tetrahydropyrazolo[1,5-a]pyrimidine-3-carboxamide] displayed a melting point of 280 to 282 °C.
